Source: the NIST ThermoML archive (doi:10.1016/j.jct.2010.10.021)
Where “and” joins values, the source holds several entries; their conditions need not be identical. Equal values may be shown once. ± gives the expanded uncertainty stated by the source.

Assay: xn = mol fraction of the nth substance listed
Conditions: 100 kPa, Liquid, Frequency=5 MHz, Single path-length method, x1 = 0.7

| speed of sound (1243 K) [m/s] | speed of sound (1254 K) [m/s] | speed of sound (1260 K) [m/s] | speed of sound (1261 K) | speed of sound (1271 K) [m/s] | speed of sound (1278 K) [m/s] | SMILES |
| --- | --- | --- | --- | --- | --- | --- |
| 1408 ± 28 | 1394 ± 28 | 1385 ± 28 |  |  |  | [F-].[Li+] [lithium fluoride] + [Br-].[K+] |
|  |  |  | 1236 ± 25 m/s and 1235 ± 25 m/s | 1226 ± 25 | 1220 ± 24 | [F-].[Li+] [lithium fluoride] + [Cl-].[Cs+] |
